Measured values reported in US11866518B2, “Bicyclic peptide ligands specific for TSLP” (BicycleTx Limited, priority 2020, dated 2024).
*1 amine or outer side, *2 acyl side, *3 side chain or, on linkers, in order; H or OH if unused. Where a SMILES comes first, the peptide text is derived from it. Bridges are numbered along the chain shown (N, C = ends). [ ]: non-standard residue; d: D form. TATA = O=C(CC[*:1])N1CN(C(=O)CC[*:2])CN(C(=O)CC[*:3])C1; Orn = NCCC[C@H](N)C(=O)O

The compounds below were run against TSLP (Homo sapiens, UniProt Q969D9) (assay: Human TSLP Surface Plasmon Resonance (SPR) binding assay). Settings: biotinylated human TSLP immobilized on streptavidin chip; 20° C.; steady-state or kinetic 1:1 fit; read-out: hTSLP SPR Kd.
Parameters: The resulting construct spCD33-6×HN-TEV-hTSLP(29-159)-Avi; 6xHN tag with TEV site (N, cleaved yes); made in house; host or cells: Expi293F cells

TSLP, sequence (Q969D9 29-159): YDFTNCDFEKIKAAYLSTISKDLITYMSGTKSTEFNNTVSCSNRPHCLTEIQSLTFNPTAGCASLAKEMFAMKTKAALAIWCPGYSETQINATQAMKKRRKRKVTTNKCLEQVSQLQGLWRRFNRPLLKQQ

| Structure (SMILES) | Kd [nM] |
| --- | --- |
| COc1ccc(C[C@@H]2NC(=O)CNC(=O)[C@H](CCCNC(=N)N)NC(=O)[C@H](Cc3c[nH]c4ccccc34)NC(=O)[C@@H]3CSCCC(=O)N4CN(CN(C4)C(=O)CCSC[C@H](NC(C)=O)C(=O)N[C@@H](CCC(N)=O)C(=O)N[C@@H](Cc4c[nH]c5ccccc45)C(=O)N[C@@H](CC(C)C)C(=O)N[C@@H](CCC(=O)O)C(=O)N[C@@H](CC(=O)O)C(=O)N3)C(=O)CCSC[C@@H](C(N)=O)NC2=O)cc1 [Example 142, Ac-(SEQ ID NO: 101)] | 710 |
| CC(=O)N[C@H]1CSCCC(=O)N2CN3CN(C2)C(=O)CCSC[C@H](NC(=O)[C@H](CC(=O)O)NC(=O)[C@H](CCC(=O)O)NC(=O)[C@H](CC(C)C)NC(=O)[C@H](Cc2c[nH]c4ccccc24)NC(=O)[C@H](CCC(N)=O)NC1=O)C(=O)N[C@@H](Cc1c[nH]c2ccccc12)C(=O)N[C@@H](CCCNC(=N)N)C(=O)NCC(=O)N[C@@H](Cc1ccc(Br)cc1)C(=O)N[C@H](C(N)=O)CSCCC3=O [Example 26, Ac-(SEQ ID NO: 24)] | 11 |
| CC(=O)N[C@H]1CSCCC(=O)N2CN3CN(C2)C(=O)CCSC[C@H](NC(=O)[C@H](CC(=O)O)NC(=O)[C@H](CCC(=O)O)NC(=O)[C@H](CC(C)C)NC(=O)[C@H](Cc2c[nH]c4ccccc24)NC(=O)[C@H](CCC(N)=O)NC1=O)C(=O)N[C@@H](Cc1c[nH]c2ccccc12)C(=O)N[C@@H](CN)C(=O)NCC(=O)N[C@@H](Cc1ccccc1)C(=O)N[C@H](C(N)=O)CSCCC3=O [Example 155, Ac-(SEQ ID NO: 114)] | 3200 |
| CC(C)C[C@@H]1NC(=O)[C@H](Cc2c[nH]c3ccccc23)NC(=O)[C@H](CC(=O)O)NC(=O)[C@@H](NC(=O)[C@H](C)N)CSCCC(=O)N2CN3CN(C2)C(=O)CCSC[C@H](NC(=O)[C@H](CC(=O)O)NC(=O)[C@H](CC(=O)O)NC1=O)C(=O)N[C@@H](Cc1c[nH]c2ccccc12)C(=O)N[C@@H](CCCCN)C(=O)NCC(=O)N[C@@H](Cc1ccccc1)C(=O)N[C@H](C(=O)N[C@@H](C)C(N)=O)CSCCC3=O [Example 141, A-(SEQ ID NO: 100)-A] (H-ACDWLDDCWKGFCA-NH2; linker 2-8-13 via TATA; N-terminus and C-terminus assumed) | 600 |
| CC[C@H](C)[C@H](NC(=O)[C@@H]1CCCN1C(=O)[C@H](C)NC(=O)[C@@H]1CSCCC(=O)N2CN3CN(C2)C(=O)CCSC[C@H](NC(=O)[C@H](CC(=O)O)NC(=O)[C@H](Cc2ccc(O)cc2)NC(=O)[C@H]([C@@H](C)O)NC(=O)[C@H](Cc2c[nH]c4ccccc24)NC(=O)[C@H](CC(N)=O)NC(=O)[C@H](Cc2c[nH]c4ccccc24)NC(=O)[C@H](CC(=O)O)NC(=O)[C@@H](NC(=O)[C@H](C)N)CSCCC3=O)C(=O)N[C@@H](Cc2c[nH]c3ccccc23)C(=O)N[C@@H](CC(C)C)C(=O)N[C@@H](CC(=O)O)C(=O)N1)C(N)=O [Example 206, A-(SEQ ID NO: 151)-API] (H-ACDWNWTYDCWLDCAPI-NH2; linker 2-10-14 via TATA; N-terminus and C-terminus assumed) | 430 |
| CC(=O)N[C@H]1CSCCC(=O)N2CN3CN(C2)C(=O)CCSC[C@@H]2NC(=O)[C@H](CC(=O)O)NC(=O)[C@H](CCC(=O)O)NC(=O)[C@H](CC(C)C)NC(=O)[C@H](CCn4cc(nn4)CC[C@H](NC(=O)[C@H](Cc4c[nH]c5ccccc45)NC2=O)C(=O)NCC(=O)N[C@@H](Cc2ccc(F)cc2)C(=O)N[C@H](C(N)=O)CSCCC3=O)NC(=O)[C@H](CCC(N)=O)NC1=O [Example 249] | 1200 |
| CC(=O)N[C@H]1CSCCC(=O)N2CN3CN(C2)C(=O)CCSC[C@H](NC(=O)[C@H](CC(=O)O)NC(=O)[C@H](CCC(=O)O)NC(=O)[C@H](CC(C)C)NC(=O)[C@H](Cc2c[nH]c4ccccc24)NC(=O)[C@H](CCC(N)=O)NC1=O)C(=O)N[C@@H](Cc1c[nH]c2ccccc12)C(=O)N[C@@H](CCCNC(=N)N)C(=O)NCC(=O)N[C@@H](Cc1cccs1)C(=O)N[C@H](C(N)=O)CSCCC3=O [Example 135, Ac-(SEQ ID NO: 96)] | 490 |
| CC(C)C[C@@H]1NC(=O)[C@H](Cc2c[nH]c3ccccc23)NC(=O)[C@H](Cc2c[nH]c3ccccc23)NC(=O)[C@H]([C@@H](C)O)NC(=O)[C@H](CCC(=O)O)NC(=O)[C@@H]2CSCCC(=O)N3CN(CN(C3)C(=O)CCSC[C@H](N)C(=O)N[C@@H](CCCN)C(=O)N[C@@H](CCC(=O)O)C(=O)N[C@@H](CC(C)C)C(=O)N[C@@H](CC(=O)O)C(=O)N3CCC[C@H]3C(=O)N[C@@H](Cc3c[nH]c4ccccc34)C(=O)N[C@@H]([C@@H](C)O)C(=O)N2)C(=O)CCSC[C@@H](C(N)=O)NC1=O [Example 180, (SEQ ID NO: 131)] (H-C[Orn]ELDPWTCETWWLC-NH2; linker 1-9-15 via TATA; N-terminus and C-terminus assumed) | 300 |
| CC(C)C[C@@H]1NC(=O)[C@H](Cc2c[nH]c3ccccc23)NC(=O)[C@H](CC(N)=O)NC(=O)[C@@H](NC(=O)[C@H](C)N)CSCCC(=O)N2CN3CN(C2)C(=O)CCSC[C@H](NC(=O)[C@H](CC(=O)O)NC(=O)[C@H](CCC(=O)O)NC1=O)C(=O)N[C@@H](Cc1c[nH]c2ccccc12)C(=O)N[C@@H](Cc1c[nH]cn1)C(=O)NCC(=O)N[C@@H](Cc1ccccc1)C(=O)N[C@H](C(=O)N[C@@H](Cc1c[nH]cn1)C(=O)N[C@@H](CCC(=O)O)C(=O)N[C@@H](CCC(=O)O)C(N)=O)CSCCC3=O [Example 125, A-(SEQ ID NO: 89)-HEE] (H-ACNWLEDCWHGFCHEE-NH2; linker 2-8-13 via TATA) | 300 |
| CC(=O)N[C@H]1CSCCC(=O)N2CN3CN(C2)C(=O)CCSC[C@H](NC(=O)[C@H](CC(=O)O)NC(=O)[C@H](CCC(=O)O)NC(=O)[C@H](CC[S+](C)[O-])NC(=O)[C@H](Cc2c[nH]c4ccccc24)NC(=O)[C@H](CCC(N)=O)NC1=O)C(=O)N[C@@H](Cc1c[nH]c2ccccc12)C(=O)N[C@@H](CCCNC(=N)N)C(=O)NCC(=O)N[C@@H](Cc1ccccc1)C(=O)N[C@H](C(N)=O)CSCCC3=O (stereo partly drawn) [Example 147, Ac-(SEQ ID NO: 106)] | 940 |
| CC(C)C[C@@H]1NC(=O)[C@H](Cc2c[nH]c3ccccc23)NC(=O)[C@H](Cc2c[nH]c3ccccc23)NC(=O)[C@H](CC(=O)O)NC(=O)[C@H](CCC(=O)O)NC(=O)[C@@H]2CSCCC(=O)N3CN(CN(C3)C(=O)CCSC[C@@H](C(=O)N[C@@H](C)C(N)=O)NC1=O)C(=O)CCSC[C@H](NC(=O)[C@H](C)N)C(=O)N[C@@H](C(C)C)C(=O)N[C@@H](CC(=O)O)C(=O)N[C@@H](CC(C)C)C(=O)N[C@@H](CC(=O)O)C(=O)N1CCC[C@H]1C(=O)N[C@@H](Cc1c[nH]c3ccccc13)C(=O)N[C@@H](CO)C(=O)N2 [Example 183, A-(SEQ ID NO: 134)-A] (H-ACVDLDPWSCEDWWLCA-NH2; linker 2-10-16 via TATA; N-terminus and C-terminus assumed) | 330 |
| CC(C)C[C@@H]1NC(=O)[C@H](Cc2c[nH]c3ccccc23)NC(=O)[C@H](Cc2c[nH]c3ccccc23)NC(=O)[C@H](CCC(=O)O)NC(=O)[C@H](CCC(=O)O)NC(=O)[C@@H]2CSCCC(=O)N3CN(CN(C3)C(=O)CCSC[C@@H](C(=O)N[C@@H](C)C(=O)N[C@@H](Cc3c[nH]cn3)C(=O)N3CCC[C@H]3C(N)=O)NC1=O)C(=O)CCSC[C@H](NC(=O)[C@H](C)N)C(=O)N[C@@H](CCCNC(=N)N)C(=O)N[C@@H](CC(=O)O)C(=O)N[C@@H](CC(C)C)C(=O)N[C@@H](CC(=O)O)C(=O)N1CCC[C@H]1C(=O)N[C@@H](Cc1c[nH]c3ccccc13)C(=O)N[C@@H]([C@@H](C)O)C(=O)N2 [Example 170, A-(SEQ ID NO: 128)-AHP] (H-ACRDLDPWTCEEWWLCAHP-NH2; linker 2-10-16 via TATA; N-terminus and C-terminus assumed) | 170 |
| CC(C)C[C@@H]1NC(=O)[C@H](Cc2c[nH]c3ccccc23)NC(=O)[C@H](Cc2c[nH]c3ccccc23)NC(=O)[C@H](CO)NC(=O)[C@H](CO)NC(=O)[C@@H]2CSCCC(=O)N3CN(CN(C3)C(=O)CCSC[C@H](NC(=O)[C@@H](NC(=O)[C@H](CC(=O)O)NC(=O)[C@H](CCCNC(=N)N)NC(=O)[C@H](CCC(N)=O)NC(=O)[C@H](Cc3ccc(O)cc3)NC(=O)[C@@H](N)CCC(=O)O)C(C)C)C(=O)N[C@@H](CCCNC(=N)N)C(=O)N[C@@H](CC(=O)O)C(=O)N[C@@H](CC(C)C)C(=O)N[C@@H](CC(=O)O)C(=O)N3CCC[C@H]3C(=O)N[C@@H](Cc3c[nH]c4ccccc34)C(=O)N[C@@H]([C@@H](C)O)C(=O)N2)C(=O)CCSC[C@@H](C(=O)N[C@@H](C)C(N)=O)NC1=O [Example 173, EYQRDV-(SEQ ID NO: 122)-A] | 77 |
| CSCC[C@H](NC(=O)[C@H](CCC(=O)O)NC(=O)[C@H](CC(N)=O)NC(=O)[C@H](CC(=O)O)NC(=O)[C@H](Cc1ccc(O)cc1)NC(=O)[C@@H]1CSCCC(=O)N2CN3CN(C2)C(=O)CCSC[C@H](N)C(=O)N[C@@H](CC(=O)O)C(=O)N[C@@H](Cc2c[nH]c4ccccc24)C(=O)N[C@@H](Cc2c[nH]cn2)C(=O)N[C@@H](Cc2c[nH]c4ccccc24)C(=O)N[C@@H](CCC(=O)O)C(=O)N[C@@H](Cc2ccc(O)cc2)C(=O)N[C@@H](CC(=O)O)C(=O)N[C@@H](CSCCC3=O)C(=O)N[C@@H](Cc2c[nH]c3ccccc23)C(=O)N[C@@H](CC(C)C)C(=O)N[C@@H](CO)C(=O)N1)C(=O)N[C@@H](CO)C(N)=O [Example 223, (SEQ ID NO: 144)-YDNEMS] | 3000 |
| CC(C)C[C@@H]1NC(=O)[C@H](Cc2c[nH]c3ccccc23)NC(=O)[C@@H]2CSCCC(=O)N3CN(CN(C3)C(=O)CCSC[C@@H](C(=O)N[C@@H](C)C(N)=O)NC(=O)[C@@H]3CCCN3C1=O)C(=O)CCSC[C@H](NC(=O)[C@H](C)N)C(=O)N[C@@H](CC(=O)O)C(=O)N[C@@H](Cc1c[nH]c3ccccc13)C(=O)N[C@@H](C(C)C)C(=O)N[C@@H](Cc1c[nH]c3ccccc13)C(=O)N[C@@H](CCC(=O)O)C(=O)N[C@@H](Cc1ccc(O)cc1)C(=O)N[C@@H](CC(=O)O)C(=O)N2 [Example 197, A-(SEQ ID NO: 142)-A] (H-ACDWVWEYDCWLPCA-NH2; linker 2-10-14 via TATA; N-terminus and C-terminus assumed) | 460 |
